± gives the standard deviation of the averaged measurements.
Experiments:
Details in all cases: 72 h
[1] = test system: BV-173
Outline: (§1)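 The IC50 was derived from log-logistic dose–response fitting. Each of fifteen myeloid leukaemia cell lines, seeded in RPMI 1640 within its linear growth range, was exposed in 384-well plates to five tenfold doses (1 to 10,000 nM) in duplicate for 72 h at 37 °C and 5% CO2. Luminescent ATP viability readings were normalised to vehicle and to a positive control at 10 µM before four-parameter curve fitting.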

[2] = test system: HEL
Outline: as §1

[3] = test system: HL-60
Outline: as §1

[4] = test system: K-562
Outline: as §1

[5] = test system: KCL-22
Outline: as §1

[6] = test system: KG-1
Outline: as §1

[7] = test system: KU-812
Outline: as §1

[8] = test system: LAMA-84
Outline: as §1

[9] = test system: ML-2
Outline: as §1

[10] = test system: MOLM-13
Outline: as §1

[11] = test system: MV4-11
Outline: as §1

[12] = test system: Mono-Mac-6
Outline: as §1

[13] = test system: NOMO-1
Outline: as §1

[14] = test system: SHI-1
Outline: as §1

[15] = test system: THP-1
Outline: as §1

[16] = test system: BV-173; test: cell viability (% survival relative to DMSO control, bortezomib = 0%); higher = less cytotoxic
Outline: (§2)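 In 384-well plates pre-printed with compounds at 1, 10, 100, 1000 or 10000 nM, duplicate wells received cells from 10 AML and 5 CML lines at densities within the linear growth range. The plates stayed at 37 °C with 5% CO2 for 72 h before CellTiter-Glo luminescence was recorded. Each entry is averaged percent survival. Scaling placed vehicle at 100% and a 10 µM positive control at 0%.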

[17] = test system: HEL; test: as above
Outline: as §2

[18] = test system: HL-60; test: as above
Outline: as §2

[19] = test system: K-562; test: as above
Outline: as §2

[20] = test system: KCL-22; test: as above
Outline: as §2

[21] = test system: KG-1; test: as above
Outline: as §2

[22] = test system: KU-812; test: as above
Outline: as §2

[23] = test system: LAMA-84; test: as above
Outline: as §2

[24] = test system: ML-2; test: as above
Outline: as §2

[25] = test system: MOLM-13; test: as above
Outline: as §2

[26] = test system: MV4-11; test: as above
Outline: as §2

[27] = test system: Mono-Mac-6; test: as above
Outline: as §2

[28] = test system: NOMO-1; test: as above
Outline: as §2

[29] = test system: SHI-1; test: as above
Outline: as §2

[30] = test system: THP-1; test: as above
Outline: as §2

[31] = test system: HL-60; test: cell viability (% survival relative to DMSO control); higher = less cytotoxic
Outline: (§3)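 HL-60 cells in RPMI 1640 with 10% FBS were rescreened against the full library on 384-well plates at five tenfold concentrations, 1–10,000 nM, in duplicate. Each screen was run with DMSO or 100 nM of one of three metabolic inhibitors, for 72 h at 37 °C, 5% CO2. Viability was read by CellTiter-Glo and normalised to DMSO and 10 μM proteasome-inhibitor wells. Where given, area under the curve came from four-parameter log-logistic fits (drc, PharmacoGx).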

[32] = test system: HL-60; test: area under dose-response curve (viability, 1 nM-10 uM) (fraction (0-1)); higher = more sensitive
Outline: as §3

[33] = test system: myeloid leukemia patient primary cells Pat.10; test: area under dose-response curve (viability, 1 nM-10 uM) (fraction (0-1)); higher = more sensitive
Description: (§4)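 AUC (0–1, higher = more sensitive) of the 5-point dose–response (1 nM–10 µM, 72 h, CellTiter-Glo) in primary AML/CML patient mononuclear cells. 0.030103 is the floor for inactive compounds.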

[34] = test system: myeloid leukemia patient primary cells Pat.11; test: as above
Description: as §4

[35] = test system: myeloid leukemia patient primary cells Pat.12; test: as above
Description: as §4

[36] = test system: myeloid leukemia patient primary cells Pat.13; test: as above
Description: as §4

[37] = test system: myeloid leukemia patient primary cells Pat.14; test: as above
Description: as §4

[38] = test system: myeloid leukemia patient primary cells Pat.15; test: as above
Description: as §4

[39] = test system: myeloid leukemia patient primary cells Pat.1; test: as above
Description: as §4

[40] = test system: myeloid leukemia patient primary cells Pat.2; test: as above
Description: as §4

[41] = test system: myeloid leukemia patient primary cells Pat.3; test: as above
Description: as §4

[42] = test system: myeloid leukemia patient primary cells Pat.4; test: as above
Description: as §4

[43] = test system: myeloid leukemia patient primary cells Pat.5; test: as above
Description: as §4

[44] = test system: myeloid leukemia patient primary cells Pat.6; test: as above
Description: as §4

[45] = test system: myeloid leukemia patient primary cells Pat.7; test: as above
Description: as §4

[46] = test system: myeloid leukemia patient primary cells Pat.8; test: as above
Description: as §4

[47] = test system: myeloid leukemia patient primary cells Pat.9; test: as above
Description: as §4

CC/C=C\C[C@H]1C(=O)CC[C@@H]1CC(=O)OC [Methyl jasmonate]
Details | IC50 (cell viability) [µM]
[1] | > 10
[2] | > 10
[3] | > 10
[4] | > 10
[5] | > 10
[6] | > 10
[7] | > 10
[8] | > 10
[9] | > 10
[10] | > 10
[11] | > 10
[12] | > 10
[13] | > 10
[14] | > 10
[15] | > 10

cell viability [%]
Details | 1 nM | 10 nM | 100 nM | 1000 nM | 10000 nM
[16] | 108 | 111 | 103 | 93.2 | 103
[17] | 97.3 | 99.1 | 114 | 99.5 | 111
[18] | 92.7 | 99.1 | 105 | 96.5 | 111
[19] | 90.2 | 95.9 | 104 | 102 | 91.5
[20] | 109 | 99.9 | 96.9 | 91.9 | 103
[21] | 115 | 95.7 | 93.9 | 101 | 105
[22] | 99.3 | 108 | 110 | 99.1 | 104
[23] | 95.6 | 100 | 105 | 98.7 | 110
[24] | 115 | 110 | 101 | 99.9 | 108
[25] | 108 | 113 | 116 | 94.3 | 96.6
[26] | 106 | 104 | 108 | 105 | 101
[27] | 102 | 101 | 111 | 96.2 | 107
[28] | 104 | 110 | 101 | 93 | 100
[29] | 98.8 | 94.2 | 90.8 | 99.3 | 98
[30] | 103 | 111 | 101 | 95.3 | 106

N#Cc1ccnc(N2C(=O)CC[C@H]2C(=O)N(c2cncc(F)c2)[C@H](C(=O)NC2CC(F)(F)C2)c2ccccc2Cl)c1 [AG-120]
cell viability [%], [31]
Details | 0.001 µM | 0.01 µM | 0.1 µM | 1 µM | 10 µM
co-treatment: AZD3965 100 nM | 102 ± 4 | 86.8 ± 16 | 113 ± 6.2 | 91 ± 1.1 | 102 ± 0.68
co-treatment: DMSO vehicle | 104 ± 3.2 | 98.74 ± 0.48 | 99.6 ± 6.6 | 97.6 ± 1.5 | 99.14 ± 0.77
co-treatment: GSK2194069 100 nM | 93.1 ± 14 | 101 ± 9.3 | 99.8 ± 12 | 92.3 ± 7.1 | 88.3 ± 1.1
co-treatment: pictilisib 100 nM | 92.9 ± 6.7 | 98.2 ± 11 | 104 ± 1.6 | 77.1 ± 13 | 98.6 ± 1.9

[32]
Details | area under dose-response curve
co-treatment: AZD3965 100 nM | < 0.0301
co-treatment: DMSO vehicle | < 0.0301
co-treatment: GSK2194069 100 nM | < 0.0301
co-treatment: pictilisib 100 nM | < 0.0301

CS(=O)(=O)N1CCN(Cc2cc3nc(-c4cccc5[nH]ncc45)nc(N4CCOCC4)c3s2)CC1 [Pictilisib]
Details | IC50 (cell viability) [µM] | area under dose-response curve
[1] | > 10 | –
[2] | > 10 | –
[3] | 0.0159 | –
[4] | 1.27 | –
[5] | > 10 | –
[6] | > 10 | –
[7] | > 10 | –
[8] | > 10 | –
[9] | 9.06 | –
[10] | 0.969 | –
[11] | 1.19 | –
[12] | > 10 | –
[13] | > 10 | –
[14] | 0.987 | –
[15] | > 10 | –
[33] | – | 0.456
[34] | – | 0.0959
[35] | – | < 0.0301
[36] | – | < 0.0301
[37] | – | 0.529
[38] | – | 0.439
[39] | – | 0.538
[40] | – | < 0.0301
[41] | – | 0.519
[42] | – | 0.294
[43] | – | 0.384
[44] | – | 0.0368
[45] | – | 0.507
[46] | – | 0.536
[47] | – | 0.257

Reference: the supplement of paper PMC8671470
